According to US10233182B2, “Substituted spirocyclic inhibitors of autotaxin” (X-Rx, Inc., priority 2014, dated 2019):

molecular target: Autotaxin (Homo sapiens (Human), UniProt Q13822); assay: Autotaxin LPC Cascade Assay; assay type: biochemical; settings: Autotaxin 5 nM, LPC 100 μM, choline oxidase/HRP/Ampliflu Red fluorescence read-out, 2% DMSO, RT; read-out: IC50 ATX Activity
Method in brief: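 Choline liberated from LPC by autotaxin during 1 h, after a 10-min RT compound preincubation, was converted through choline oxidase/HRP to a fluorescent Ampliflu Red product.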

| SMILES | IC50 [nM] |
| --- | --- |
| Cc1cccc(C(=O)N[C@@H](C(=O)N2CCC3(CC2)C(=O)N(C)CN3c2ccc(C#N)cc2)C(C)C)c1F [Example 179, (R)—N-(1-(1-(4-Cyanophenyl)-3-methyl-4-oxo-1,3,8-triazaspiro[4.5]decan-8-yl)-3-methyl-1-oxobutan-2-yl)-2-fluoro-3-methylbenzamide] | < 500 |
| CC(C)[C@@H](NC(=O)c1cc(C(F)(F)F)ccc1F)C(=O)N1CCC2(CC1)C(=O)N(C)C(=O)N2c1cccc(S(C)(=O)=O)c1 [Example 15, (R)-2-Fluoro-N-(3-methyl-1-(3-methyl-1-(3-(methylsulfonyl)phenyl)-2,4-dioxo-1,3,8-triazaspiro[4.5]decan-8-yl)-1-oxobutan-2-yl)-5-(trifluoromethyl)benzamide] | ≥ 1000 |
| CC(C)[C@@H](NC(=O)c1cc(C(F)(F)F)ccc1F)C(=O)N1CCC2(CC1)C(=O)N(C)CN2c1ccc(S(C)(=O)=O)cc1 [Example 205, (R)-2-Fluoro-N-(3-methyl-1-(3-methyl-1-(4-(methylsulfonyl)phenyl)-4-oxo-1,3,8-triazaspiro[4.5]decan-8-yl)-1-oxobutan-2-yl)-5-(trifluoromethyl)benzamide] | < 500 |
| CC(C)[C@@H](NC(=O)c1cc(C(F)(F)F)ccc1F)C(=O)N1CCC2(CC1)C(=O)N(C)C(=O)N2C(C)c1ccccc1 (stereo partly drawn) [Example 92, 2-Fluoro-N-((2R)-3-methyl-1-(3-methyl-2,4-dioxo-1-(1-phenylethyl)-1,3,8-triazaspiro[4.5]decan-8-yl)-1-oxobutan-2-yl)-5-(trifluoromethyl)benzamide] | 500 to 1000 |
| CC(C)[C@@H](NC(=O)c1cc(C(F)(F)F)ccc1F)C(=O)N1CCC2(CC1)C(=O)N(C)[C@H](C)N2c1ccc(C(=O)O)cc1 [Example 212, 4-((R)-8-((R)-2-(2-Fluoro-5-(trifluoromethyl)benzamido)-3-methylbutanoyl)-2,3-dimethyl-4-oxo-1,3,8-triazaspiro[4.5]decan-1-yl)benzoic Acid] | < 500 |
| CC(C)[C@@H](NC(=O)c1cc(C(F)(F)F)ccc1F)C(=O)N1CCC2(CC1)C(=O)N(C)C(=O)N2Cc1cnn(C)c1 [Example 115, (R)-2-Fluoro-N-(3-methyl-1-(3-methyl-1-((1-methyl-1H-pyrazol-4-yl)methyl)-2,4-dioxo-1,3,8-triazaspiro[4.5]decan-8-yl)-1-oxobutan-2-yl)-5-(trifluoromethyl)benzamide] | ≥ 1000 |
| CCc1ccc(F)c(C(=O)N[C@@H](C(=O)N2CCC3(CC2)C(=O)N(C)CN3c2ccc(OCC(N)=O)cc2)C(C)C)c1 [Example 169, (R)—N-(1-(1-(4-(2-Amino-2-oxoethoxy)phenyl)-3-methyl-4-oxo-1,3,8-triazaspiro[4.5]decan-8-yl)-3-methyl-1-oxobutan-2-yl)-5-ethyl-2-fluorobenzamide] | < 500 |
| CCc1cc(F)cc(C(=O)N[C@@H](C(=O)N2CCC3(CC2)C(=O)N(C)C(=O)N3c2ccccc2)C(C)C)c1 [Example 47, (R)-3-Ethyl-5-fluoro-N-(3-methyl-1-(3-methyl-2,4-dioxo-1-phenyl-1,3,8-triazaspiro[4.5]decan-8-yl)-1-oxobutan-2-yl)benzamide] | 500 to 1000 |
| CCc1ccc(F)c(C(=O)N[C@@H](C(=O)N2CCC3(CC2)C(=O)N(C)C(=O)N3c2ccc(OC)cc2)[C@@H](C)OC)c1 [Example 40, 5-Ethyl-2-fluoro-N-((2R,3R)-3-methoxy-1-(1-(4-methoxyphenyl)-3-methyl-2,4-dioxo-1,3,8-triazaspiro[4.5]decan-8-yl)-1-oxobutan-2-yl)benzamide] | < 500 |
| CC(C)[C@@H](NC(=O)c1cc(OC(F)(F)F)ccc1F)C(=O)N1CCC2(CC1)C(=O)N(C)C(=O)N2c1ccc(C(=O)O)cc1 [Example 167, (R)-4-(8-(2-(2-Fluoro-5-(trifluoromethoxy)benzamido)-3-methylbutanoyl)-3-methyl-2,4-dioxo-1,3,8-triazaspiro[4.5]decan-1-yl)benzoic Acid] | < 500 |
| CCc1ccc(F)c(C(=O)N[C@@H](C(=O)N2CCC3(CC2)C(=O)N(C)CN3c2ccccc2)[C@H](C)OC)c1 [Example 133, 5-Ethyl-2-fluoro-N-((2R,3S)-3-methoxy-1-(3-methyl-4-oxo-1-phenyl-1,3,8-triazaspiro[4.5]decane-8-yl)-1-oxobutan-2-yl)benzamide] | < 500 |
| CN1C(=O)N(Cc2ccc3nccnc3c2)C2(CCN(C(=O)[C@H](NC(=O)c3cc(C(F)(F)F)ccc3F)C3CC3)CC2)C1=O [Example 109, (R)—N-(1-Cyclopropyl-2-(3-methyl-2,4-dioxo-1-(quinoxalin-6-ylmethyl)-1,3,8-triazaspiro[4.5]decan-8-yl)-2-oxoethyl)-2-fluoro-5-(trifluoromethyl)benzamide] | < 500 |
| CC(C)[C@@H](NC(=O)c1cc(C(F)(F)F)ccc1F)C(=O)N1CCC2(CC1)C(=O)N(C)C(=O)N2C1CC1 [Example 76, (R)—N-(1-(1-Cyclopropyl-3-methyl-2,4-dioxo-1,3,8-triazaspiro[4.5]decan-8-yl)-3-methyl-1-oxobutan-2-yl)-2-fluoro-5-(trifluoromethyl)benzamide] | 500 to 1000 |
| CC(C)[C@@H](NC(=O)c1cccc(C(F)(F)F)c1)C(=O)N1CCC2(CC1)C(=O)N(C)C(=O)N2c1ccc2[nH]ncc2c1 [Example 59, (R)—N-(1-(1-(1H-Indazol-5-yl)-3-methyl-2,4-dioxo-1,3,8-triazaspiro[4.5]decan-8-yl)-3-methyl-1-oxobutan-2-yl)-3-(trifluoromethyl)benzamide] | < 500 |
| CC(C)[C@@H](NC(=O)c1cc(C(F)(F)F)ccc1F)C(=O)N1CCC2(CC1)C(=O)N(C)CN2c1ccc(=O)n(C)c1 [Example 204, (R)-2-Fluoro-N-(3-methyl-1-(3-methyl-1-(1-methyl-6-oxo-1,6-dihydropyridin-3-yl)-4-oxo-1,3,8-triazaspiro[4.5]decan-8-yl)-1-oxobutan-2-yl)-5-(trifluoromethyl)benzamide] | < 500 |
| CCc1ccc(F)c(C(=O)N[C@@H](C(=O)N2CCC3(CC2)C(=O)N(C)CN3c2ccc(OCC#N)cc2)C(C)C)c1 [Example 170, (R)—N-(1-(1-(4-(Cyanomethoxy)phenyl)-3-methyl-4-oxo-1,3,8-triazaspiro[4.5]decan-8-yl)-3-methyl-1-oxobutan-2-yl)-5-ethyl-2-fluorobenzamide] | < 500 |
| COc1ccc(F)c(C(=O)N[C@@H](C(=O)N2CCC3(CC2)C(=O)N(C)CN3c2ccc(C(=O)O)cc2)C(C)C)c1 [Example 163, (R)-4-(8-(2-(2-Fluoro-5-methoxybenzamido)-3-methylbutanoyl)-3-methyl-4-oxo-1,3,8-triazaspiro[4.5]decan-1-yl)benzoic Acid] | < 500 |
| Cc1cccc(C(=O)N[C@@H](C(=O)N2CCC3(CC2)C(=O)N(C)CN3c2cccc(Br)c2)C(C)C)c1 [Example 194, (R)—N-(1-(1-(3-Bromophenyl)-3-methyl-4-oxo-1,3,8-triazaspiro[4.5]decan-8-yl)-3-methyl-1-oxobutan-2-yl)-3-methylbenzamide] | < 500 |
| CC(C)[C@@H](NC(=O)c1cc(C(F)(F)F)ccc1F)C(=O)N1CCC2(CC1)C(=O)N(C)C(=O)N2C1CCOCC1 [Example 77, (R)-2-Fluoro-N-(3-methyl-1-(3-methyl-2,4-dioxo-1-(tetrahydro-2H-pyran-4-yl)-1,3,8-triazaspiro[4.5]decan-8-yl)-1-oxobutan-2-yl)-5-(trifluoromethyl)benzamide] | 500 to 1000 |
| CC(C)[C@@H](NC(=O)c1cc(OC(F)(F)F)ccc1F)C(=O)N1CCC2(CC1)C(=O)N(C)CN2c1ccc(C(=O)O)cc1 [Example 162, (R)-4-(8-(2-(2-Fluoro-5-(trifluoromethoxy)benzamido)-3-methylbutanoyl)-3-methyl-4-oxo-1,3,8-triazaspiro[4.5]decan-1-yl)benzoic Acid] | < 500 |
| CC(C)[C@@H](NC(=O)c1cc(C(F)(F)F)ccc1F)C(=O)N1CCC2(CC1)NC(=O)N(C)C2=O [Example 126, (R)-2-Fluoro-N-(3-methyl-1-(3-methyl-2,4-dioxo-1,3,8-triazaspiro[4.5]decan-8-yl)-1-oxobutan-2-yl)-5-(trifluoromethyl)benzamide] | ≥ 1000 |
| CC(C)[C@@H](NC(=O)c1cccc(C(F)(F)F)c1)C(=O)N1CCC2(CC1)C(=O)N(C)C(=O)N2c1ccccc1 [Example 33, (R)—N-(3-Methyl-1-(3-methyl-2,4-dioxo-1-phenyl-1,3,8-triazaspiro[4.5]decan-8-yl)-1-oxobutan-2-yl)-3-(trifluoromethyl)benzamide] | 500 to 1000 |
| CN1C(=O)N(c2ccc3[nH]ncc3c2)C2(CCN(C(=O)[C@H](NC(=O)c3cc(C(F)(F)F)ccc3F)C3CCC3)CC2)C1=O [Example 58, (R)—N-(2-(1-(1H-Indazol-5-yl)-3-methyl-2,4-dioxo-1,3,8-triazaspiro[4.5]decan-8-yl)-1-cyclobutyl-2-oxoethyl)-2-fluoro-5-(trifluoromethyl)benzamide] | < 500 |
| Cc1ccc(C(F)(F)F)cc1C(=O)N[C@@H](C(=O)N1CCC2(CC1)C(=O)N(C)CN2c1ccc(C(=O)O)cc1)C(C)C [Example 161, (R)-4-(3-Methyl-8-(3-methyl-2-(2-methyl-5-(trifluoromethyl)benzamido)butanoyl)-4-oxo-1,3,8-triazaspiro[4.5]decan-1-yl)benzoic Acid] | 500 to 1000 |
| CC(C)[C@@H](NC(=O)c1cc(C(F)(F)F)ccc1F)C(=O)N1CCC2(CC1)C(=O)N(CC1CC1)CN2c1ccc(C(=O)O)cc1 [Example 155, (R)-4-(3-(Cyclopropylmethyl)-8-(2-(2-fluoro-5-(trifluoromethyl)benzamido)-3-methylbutanoyl)-4-oxo-1,3,8-triazaspiro[4.5]decan-1-yl)benzoic Acid] | < 500 |
| COc1ccc(CN2C(=O)N(C)C(=O)C23CCN(C(=O)[C@H](NC(=O)c2cc(C(F)(F)F)ccc2F)C(C)C)CC3)cn1 [Example 97, (R)-2-Fluoro-N-(1-(1-((6-methoxypyridin-3-yl)methyl)-3-methyl-2,4-dioxo-1,3,8-triazaspiro[4.5]decan-8-yl)-3-methyl-1-oxobutan-2-yl)-5-(trifluoromethyl)benzamide] | < 500 |
